The values below come from paper PMC11494505, “Asymmetric Monoreduction of α,β-Dicarbonyls to α-Hydroxy Carbonyls by Ene Reductases” (ACS Catalysis, 2024).

The target in data set [1] is T1, GluER (Gluconobacter oxydans, UniProt Q5FTL6).
T1 construct: gene GOX0502; wild type, N-terminal His-tag (pET-28a(+)), E. coli BL21 Gold(DE3), IMAC, FMN-loaded
Nature of the data set: bioconversion to 2-hydroxyhexan-3-one, chiral GC. The format is biochemical. The note with it: 10 mM substrate, 5 μM enzyme, 1.1 eq. NADPH, 2% DMSO, pH 7.0, 30 °C, 6 h.

Data set [2] deals with T2, TOYE (Thermoanaerobacter pseudethanolicus, UniProt B0KAH1).
T2 construct: gene Teth39_0012; recombinant in-house enzyme; details in supplement
T2 sequence (B0KAH1 entry or part of it): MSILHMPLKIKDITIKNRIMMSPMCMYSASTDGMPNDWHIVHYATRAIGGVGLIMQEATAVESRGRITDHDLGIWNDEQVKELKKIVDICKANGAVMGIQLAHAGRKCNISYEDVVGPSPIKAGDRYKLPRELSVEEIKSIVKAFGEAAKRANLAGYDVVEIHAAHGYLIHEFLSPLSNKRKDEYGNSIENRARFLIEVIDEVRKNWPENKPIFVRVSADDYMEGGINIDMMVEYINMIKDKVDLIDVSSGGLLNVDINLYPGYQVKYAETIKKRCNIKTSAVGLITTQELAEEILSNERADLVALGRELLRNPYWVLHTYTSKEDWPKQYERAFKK
As to the kind of experiment: bioconversion to 7b, HPLC. Type of data set: biochemical. The note with it: 10 mM substrate, 5 μM enzyme, 11 mM NADPH, 2% DMSO, pH 7.0, 30 °C, 6 h.

For data set [3], the target named is T3, YqjM (Bacillus subtilis, UniProt P54550).
T3 construct: gene namA; recombinant, purified; details in supplement
T3 sequence (P54550 2-338): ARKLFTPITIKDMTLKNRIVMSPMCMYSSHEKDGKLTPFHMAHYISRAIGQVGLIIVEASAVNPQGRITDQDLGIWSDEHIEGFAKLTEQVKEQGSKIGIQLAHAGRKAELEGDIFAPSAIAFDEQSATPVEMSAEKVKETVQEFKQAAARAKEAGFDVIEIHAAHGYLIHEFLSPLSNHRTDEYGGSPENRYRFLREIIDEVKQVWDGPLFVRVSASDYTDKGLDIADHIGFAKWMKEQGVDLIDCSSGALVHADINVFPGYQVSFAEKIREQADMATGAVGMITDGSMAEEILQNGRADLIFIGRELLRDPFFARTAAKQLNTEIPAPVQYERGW
As to the kind of experiment: bioconversion to 7b, HPLC. Type of data set: biochemical. Conditions: 10 mM substrate, 5 μM enzyme, 11 mM NADPH, 2% DMSO, pH 7.0, 30 °C, 6 h.

The target in data set [4] is T1, GluER. Nature of the data set: bioconversion to 7b and 7c, HPLC / GC. Conditions: 10 mM substrate, 5 μM enzyme, 1.1 eq. NADPH, 2% DMSO, pH 7.0, 30 °C, 6 h. The format is biochemical.
The target in data set [5] is T4, EPB1 (Candida albicans, UniProt A0A1D8PPK1).
T4 construct: gene EBP1; wild type, N-terminal His-tag (pET-28a(+)), E. coli BL21 Gold(DE3); spelled EBP1 in Methods
T4 sequence (A0A1D8PPK1 whole entry): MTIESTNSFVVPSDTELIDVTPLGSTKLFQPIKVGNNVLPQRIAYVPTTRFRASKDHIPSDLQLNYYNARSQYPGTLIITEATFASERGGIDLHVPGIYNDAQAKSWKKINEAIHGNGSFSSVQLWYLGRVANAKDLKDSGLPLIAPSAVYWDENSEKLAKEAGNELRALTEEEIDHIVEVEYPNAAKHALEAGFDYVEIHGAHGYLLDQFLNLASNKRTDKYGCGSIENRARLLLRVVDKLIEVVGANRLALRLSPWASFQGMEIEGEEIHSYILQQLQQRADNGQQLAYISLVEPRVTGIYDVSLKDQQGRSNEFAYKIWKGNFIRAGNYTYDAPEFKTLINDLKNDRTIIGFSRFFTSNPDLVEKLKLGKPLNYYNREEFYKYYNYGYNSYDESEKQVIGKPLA
Nature of the data set: bioconversion to 7b, HPLC. The format is biochemical. The note with it: 10 mM substrate, 5 μM enzyme, 11 mM NADPH, 2% DMSO, pH 7.0, 30 °C, 6 h.

Data set [6] concerns the target T5, OYE2 (Saccharomyces cerevisiae, UniProt Q03558).
T5 construct: wild type, N-terminal His-tag (pET-28a(+)), E. coli BL21 Gold(DE3), IMAC, FMN-loaded
Nature of the data set: bioconversion to 7b, HPLC. The format is biochemical. Conditions: 10 mM substrate, 5 μM enzyme, 11 mM NADPH, 2% DMSO, pH 7.0, 30 °C, 6 h.

The target of data set [7] is T6, PETNR (Enterobacter cloacae, UniProt P71278).
T6 construct: gene onr; recombinant in-house enzyme; details in supplement
T6 sequence (P71278 entry or part of it): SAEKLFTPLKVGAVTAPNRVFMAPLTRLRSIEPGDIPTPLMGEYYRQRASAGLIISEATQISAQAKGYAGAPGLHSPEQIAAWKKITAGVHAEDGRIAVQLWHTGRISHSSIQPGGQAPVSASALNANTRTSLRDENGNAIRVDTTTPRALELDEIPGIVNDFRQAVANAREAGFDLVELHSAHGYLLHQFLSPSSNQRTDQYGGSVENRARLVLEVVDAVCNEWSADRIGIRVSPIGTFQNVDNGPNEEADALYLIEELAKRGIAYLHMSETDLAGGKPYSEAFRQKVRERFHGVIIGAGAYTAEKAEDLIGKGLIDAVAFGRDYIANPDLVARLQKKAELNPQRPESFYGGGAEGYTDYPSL
Nature of the data set: bioconversion to 7b, HPLC. Type of data set: biochemical. Conditions: 10 mM substrate, 5 μM enzyme, 11 mM NADPH, 2% DMSO, pH 7.0, 30 °C, 6 h.

Data set [8] addresses T7, TsOYE (Thermus scotoductus, UniProt B0JDW3).
T7 construct: gene chrR; wild type, pET-28a(+), E. coli BL21 Gold(DE3), N-terminal His-tag, heat purified (70 °C)
As to the kind of experiment: bioconversion to 7b, HPLC. Type of data set: biochemical. Conditions: 10 mM substrate, 5 μM enzyme, 11 mM NADPH, 2% DMSO, pH 7.0, 30 °C, 6 h.

The target in data set [9] is T8, XenA (Pseudomonas putida, UniProt Q9R9V9).
T8 construct: recombinant in-house enzyme; details in supplement
T8 sequence (Q9R9V9 entry or part of it): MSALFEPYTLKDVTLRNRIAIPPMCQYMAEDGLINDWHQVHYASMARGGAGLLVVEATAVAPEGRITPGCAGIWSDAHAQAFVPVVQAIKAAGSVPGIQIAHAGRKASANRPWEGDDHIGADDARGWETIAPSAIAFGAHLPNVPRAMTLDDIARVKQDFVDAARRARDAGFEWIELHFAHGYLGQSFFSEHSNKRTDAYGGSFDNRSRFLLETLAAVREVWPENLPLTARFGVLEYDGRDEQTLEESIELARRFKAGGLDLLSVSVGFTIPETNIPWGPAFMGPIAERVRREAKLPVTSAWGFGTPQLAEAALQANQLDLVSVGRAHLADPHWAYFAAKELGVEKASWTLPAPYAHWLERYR
As to the kind of experiment: bioconversion to 7b, HPLC. The format is biochemical. Conditions: 10 mM substrate, 5 μM enzyme, 11 mM NADPH, 2% DMSO, pH 7.0, 30 °C, 6 h.

Data set [10] concerns the target T5, OYE2. As to the kind of experiment: bioconversion, GC. Type of data set: biochemical. Conditions: 10 mM substrate, 5 μM enzyme, 11 mM NADPH, 2% DMSO, pH 7.0, 30 °C, 6 h; product detected as 8c by GC.
Data set [11] deals with T9, CC(=O)C(=O)c1ccccc1.
T9 construct: wild type, N-terminal His-tag (pET-28a(+)), E. coli BL21 Gold(DE3), IMAC, FMN-loaded
Nature of the data set: steady-state Michaelis-Menten kinetics. Type of data set: biochemical, Saccharomyces cerevisiae. Conditions: NADPH as cofactor.

T5 sequence (Q03558 whole entry): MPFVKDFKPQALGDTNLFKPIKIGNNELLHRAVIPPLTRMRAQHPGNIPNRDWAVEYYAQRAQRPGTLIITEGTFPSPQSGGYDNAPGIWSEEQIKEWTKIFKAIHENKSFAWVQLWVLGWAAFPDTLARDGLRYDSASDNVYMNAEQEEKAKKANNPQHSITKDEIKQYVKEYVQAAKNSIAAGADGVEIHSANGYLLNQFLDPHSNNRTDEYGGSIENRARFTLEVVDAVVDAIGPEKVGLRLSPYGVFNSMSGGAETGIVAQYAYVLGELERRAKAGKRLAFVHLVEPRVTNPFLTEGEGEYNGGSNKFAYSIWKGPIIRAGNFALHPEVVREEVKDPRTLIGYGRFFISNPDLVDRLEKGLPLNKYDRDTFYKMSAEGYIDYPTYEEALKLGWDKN
T1 sequence (Q5FTL6 entry or part of it): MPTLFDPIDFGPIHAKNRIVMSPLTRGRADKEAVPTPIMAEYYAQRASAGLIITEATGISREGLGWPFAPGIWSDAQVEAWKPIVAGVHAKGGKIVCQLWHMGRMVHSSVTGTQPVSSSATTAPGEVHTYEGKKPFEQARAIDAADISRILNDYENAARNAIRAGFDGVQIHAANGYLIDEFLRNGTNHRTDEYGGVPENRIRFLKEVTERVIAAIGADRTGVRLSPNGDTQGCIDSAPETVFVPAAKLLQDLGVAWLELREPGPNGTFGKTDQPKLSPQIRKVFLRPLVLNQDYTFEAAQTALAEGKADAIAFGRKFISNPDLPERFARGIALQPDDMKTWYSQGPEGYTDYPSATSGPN

In the case of `CCCC(=O)C(C)=O` [2a, 2,3-hexanedione], in [1], the “% conversion” value is 19%.
Consider `CC(=O)C(=O)c1ccccc1` [7a, 1-phenyl-1,2-propanedione], for which the “bioconversion to 7b, HPLC” value was “class III (TsOYE, XenA, TOYE, YqjM)” in data set [2]; “class III (TsOYE, XenA, TOYE, YqjM)” in data set [3]; “class II (OYE3, OYE2, EPB1)” in data set [5]; “Nine of the enzymes produced the single product 7b” in data set [6]; “Nine of the enzymes produced the single product 7b; class I (PETNR, NCR)” in data set [7]; “class III (TsOYE, XenA, TOYE, YqjM)” in data set [8]. In addition, the “bioconversion to 7b, HPLC” value in data set [9] is recorded as “class III (TsOYE, XenA, TOYE, YqjM)”. Further, the “bioconversion to 7b and 7c, HPLC / GC” value in data set [4] was “GluER was the most versatile ERED, able to reduce 1a–5a, 7a, and 8a”.
`O=CC(=O)c1ccccc1` [8a, phenylglyoxal]: the “bioconversion, GC” value in data set [10] is “could confirm excellent conversions with 8a”.
The Km is the concentration of substrate that gives half-maximal velocity. For orientation: kcat means the number of substrate molecules converted per active site and unit of time at saturation. For the compound OYE3 (Saccharomyces cerevisiae S288C), in [11], the Km worked out at 2460 ± 250 µM and the kcat came out at 0.71 ± 0.03 s⁻¹.
